Values of other authors as cited in patent US8580318B2, “Natural water soluble extracts for the inhibition of alpha-1-adrenergic receptors” (Naturamed Ltd., priority 2007, dated 2013).

System: serum prostate specific antigen (PSA)
Conditions: patients with BPH

SMILES: CC(C)(C)NC(=O)[C@H]1CC[C@H]2[C@@H]3CC[C@H]4NC(=O)C=C[C@]4(C)[C@H]3CC[C@]12C [finasteride, Finasteride]
- decrease in serum prostate specific antigen (PSA) levels: approximately 50%
